In patent US9688637B2, “3-amidobenzamides and uses thereof for increasing cellular levels of A3G and other A3 family members” (Northwestern University, priority 2014, dated 2017):

Legend:
A3G-Luc = A3G-Luc luciferase screen in 293T cells stably expressing A3G-Luc; format: cell-based, human; conditions: 10 μM, 48 hrs, DMSO = 100%
From the text: This background led to construction of cell lines to use in a search for compounds that might boost levels of A3s in the HIV target cells of the majority of HIV-infected persons who are non-controllers. The goal is to test a strategy of using such a booster in acute/early infection to prevent the hypothesized decrease of A3G and related A3s in an effort to increase “control” in persons lacking HLA B57/27-associated control. […] 293T and TZM-bl cells were maintained in DMEM (containing 4.5 g/liter glucose, L-glutamine, and sodium pyruvate) medium plus 10% fetal bovine serum, 50 IU/ml penicillin, and 50 μg/ml streptomycin at 37° C. and 5% CO2 throughout the experiments. […]. After collecting viral supernatant, 293T cells were infected with viral particles harboring the A3G-Luc expressing vector and selected with puromycin (0.75 μg/ml) for three days. Ten single cell clones of stable cells were isolated and tested for expression of A3G-Luc protein by both immunoblotting using antibody against A3G and measuring luciferase activity. Expressions in cell lines used for subsequent experiments are depicted in FIG. 2, upper panel. The A3G-Luc fusion protein was sensitive to Vif-mediated degradation (FIG. 3). Similar cells lines stably expressing A3F were constructed with the same methods (not shown).
To screen compounds that can boost A3G levels, 293T cells (25,000 cells per well in 96-well plate) stably expressing A3G-Luc protein or A3G-Luc/Vif proteins were plated. […] After 48 hrs of incubation with compounds culture medium was removed from each well and replaced with 100 μl of Britelite Plus luciferase assay substrate (PerkinElmer). Following 5 min. of incubation at room temperature, 75 μl of each cell lysate was transferred to a 96-well OptiPlate 96 (PerkinElmer) and luminescence was measured in a VICTOR X2 Multilabel Reader (PerkinElmer). Relative activity of compounds for their boosting capability A3G-Luc activity was calculated by plotting DMSO-treated A3G-Luc or A3G-Luc/Vif cells as 100%. Cellular cytotoxicity was measured by counting number of cells after 48 hrs of incubation with compounds compared to DMSO treated cells.

A3G-Luc/Vif = A3G-Luc/Vif luciferase screen in 293T cells stably co-expressing A3G-Luc and HIV-1 Vif; format: cell-based, human; conditions: 10 μM, 48 hrs, DMSO = 100%
Protocol: FIG. 6. 293T cell clone #6 stably co-expressing A3G-Luciferase fusion protein together with HIV-1 Vif was used. Small molecule compounds were tested for their effects on stability of A3G and inhibition of Vif activity against A3G by measuring luciferase activity, relative to treatment with control DMSO only. The relative % luciferase activity was higher after treatment with NU compounds than DMSO.
[…]. After sorting, expression of both A3G-Luc and Vif was confirmed by immunoblotting using antibody against both A3G and Vif.
(§1) To screen compounds that can boost A3G levels, 293T cells (25,000 cells per well in 96-well plate) stably expressing A3G-Luc protein or A3G-Luc/Vif proteins were plated. After 24 hrs post plating culture medium was replaced with 100 μl of new medium containing either DMSO as a control or various compounds (10 μM concentration). After 48 hrs of incubation with compounds culture medium was removed from each well and replaced with 100 μl of Britelite Plus luciferase assay substrate (PerkinElmer). Following 5 min. of incubation at room temperature, 75 μl of each cell lysate was transferred to a 96-well OptiPlate 96 (PerkinElmer) and luminescence was measured in a VICTOR X2 Multilabel Reader (PerkinElmer). Relative activity of compounds for their boosting capability A3G-Luc activity was calculated by plotting DMSO-treated A3G-Luc or A3G-Luc/Vif cells as 100%. Cellular cytotoxicity was measured by counting number of cells after 48 hrs of incubation with compounds compared to DMSO treated cells.

Wild-type HIV-1 [1] = test: A3G-mediated restriction of wild-type HIV-1; virus from 293T stably expressing A3G, TZM-bl readout; format: cell-based; conditions: Human immunodeficiency virus 1, HEK-293T, read-out: A3G-mediated Restriction by Compounds on Wild-type HIV-1 (% of HIV replication relative to DMSO treated Control)
Protocol: (§2) To test the effect of compounds shown to boost A3G-Luc levels in our screening systems on inhibition of wild-type HIV-1 replication by A3G or A3F, 293T cell lines stably expressing A3G or A3F were plated (750,000 cells per well in 6-well plate). At 24 hrs post plating, 1.5 μg of a wild-type (Vif-positive) HIV-1 proviral vector, NL4.3, was transfected into the 293T stable cell lines expressing either A3G or A3F. At 4 hrs post transfection, either DMSO as a control or an individual compound from series described below was added into the culture medium at a 10 μM concentration. At 1 day post transfection, supernatant fluids containing viral particles were filtered through […] filter to remove cellular debris. To test the effect of compound on HIV-1 replication, TZM-bl indicator cells were plated at a density of 10,000 cells/well in a 96 well culture plate 24 hrs prior to infection. TZM-bl indicator cells express luciferase gene under the control of HIV LTR promoter and are routinely used to measure HIV-1 replication capability. On the day of infection, the culture medium was removed and the cells inoculated with equal amount of HIV-1 particles in triplicate with 100 μl of viral supernatants in culture medium containing 20 μg/ml DEAE-dextran. After 24 hrs of incubation, culture medium was removed from each well and replaced with 100 μl of Britelite Plus luciferase assay substrate. Following 5 min. of incubation at room temperature, 75 μl of each cell lysate was transferred to a 96-well OptiPlate 96 and luminescence was measured in a VICTOR X2 Multilabel Reader as described above. Relative infectivity was calculated by plotting luciferase activity from viral particle from DMSO treated A3G or A3F cell lines as 100%. We only tested effect A3F- or A3G mediated restriction of HIV-1 replication by compounds boosting luciferase activity by more than 160% compared to DMSO control sample.

Wild-type HIV-1 [2] = test: A3F-mediated restriction of wild-type HIV-1; virus from 293T stably expressing A3F, TZM-bl readout; format: cell-based; conditions: Human immunodeficiency virus 1, HEK-293T, read-out: A3F-mediated Restriction by Compounds on Wild-type HIV-1 (% of HIV replication relative to DMSO treated Control)
Protocol: as §2

293T cells = test: Cellular cytotoxicity by counting cells after 48 hrs with compound vs DMSO; format: cell-based; conditions: 48 hrs; for Cytotoxicity: Cell Proliferation Blocked at: concentration at which proliferation was blocked
Protocol: as §1

Structure (SMILES) | A3G-Luc Activity (% of Relative Light Units compared to DMSO treated control) (A3G-Luc) [%] | Vif-A3G-Luc Activity (% of RLUs compared to DMSO treated control) (A3G-Luc/Vif) [%] | activity at 10 µM (Wild-type HIV-1 [1]) [%] | activity at 10 µM (Wild-type HIV-1 [2]) [%] | Cytotoxicity: Cell Proliferation Blocked at (293T cells) | Cytotoxicity: Cell Death at (293T cells; concentration at which cell death was seen)
COc1ccc(C(=O)Nc2ccc(Cl)c(Cl)c2)cc1NC(=O)C(C)(C)C [NU-458] | 189 | 123 | 54 | 45 | – | –
COc1ccc(C(=O)Nc2ccc(Cl)c(Cl)c2)cc1NC(=O)N(C)C [NU-472] | 238 | 146 | 61 | 49 | – | –
CCOc1ccc(C(=O)Nc2ccc(Cl)c(Cl)c2)cc1NC(=O)C1CCC1 [NU-612] | 202 | 178 | 81 | 96 | – | –
CC(C)(C)OC(=O)NCCOCCOc1ccc(C(=O)Nc2ccc(Cl)c(Cl)c2)cc1N [NU-124] | 25 | – | – | – | Cell Proliferation Blocked at 10 μM | –
COCCC(=O)Nc1cc(C(=O)Nc2ccc(Cl)c(Cl)c2)ccc1OC [NU-463] | 287 | 178 | 64 | 67 | – | –
CCOc1ccc(C(=O)Nc2ccc(Cl)c(Cl)c2)cc1NC(=O)CC1CC1 [NU-613] | 186 | 158 | 98 | 85 | – | –
COCCOc1ccc(C(=O)Nc2ccc(Cl)c(Cl)c2)cc1NC(=O)C1CCC1 [NU-616] | 171 | 152 | 95 | – | – | –
CC(C)C(=O)Nc1cc(C(=O)Nc2ccc(Cl)c(Cl)c2)ccc1OCCOCCNC(=O)OC(C)(C)C [NU-125] | 25 | – | – | – | Cell Proliferation Blocked at 10 μM | –
COCC(=O)Nc1cc(C(=O)Nc2ccc(Cl)c(Cl)c2)ccc1OC [NU-462] | 282 | 170 | 62 | 53 | – | –
COC(=O)Nc1cc(C(=O)Nc2ccc(Cl)c(Cl)c2)ccc1OC [NU-460] | 254 | 119 | 34 | 34 | – | –
COc1ccc(C(=O)Nc2cc(OC)c(OC)c(OC)c2)cc1N [NU-49] | – | – | – | – | – | Cell Death at 10 μM
COc1ccc(C(=O)Nc2ccc(Cl)c(Cl)c2)cc1NC(=O)C1CC1C (centres unmarked) [NU-465] | 193 | 106 | 47 | 53 | – | –
COc1ccc(C(=O)Nc2ccc(Cl)c(Cl)c2)cc1NC(=O)C1CCCO1 (centres unmarked) [NU-464] | 288 | 170 | 77 | 77 | – | –
COc1ccc(C(=O)Nc2ccc(Cl)c(Cl)c2)cc1NC(=O)CN(C)C [NU-471] | 238 | 175 | 66 | 65 | – | –
COCCOc1ccc(C(=O)Nc2ccc(Cl)c(Cl)c2)cc1NC(=O)CC1CC1 [NU-617] | 191 | 182 | 74 | – | – | –
COc1ccc(C(=O)Nc2ccc(Cl)c(Cl)c2)cc1NS(=O)(=O)C(C)C [NU-468] | 213 | 147 | 58 | 48 | – | –
COc1ccc(C(=O)Nc2ccc(Cl)c(Cl)c2)cc1NS(C)(=O)=O [NU-467] | 194 | 146 | 79 | 64 | – | –
